# How the values were obtained:
# [1] = test system: MLC; experiment: Western blotting of HPAEC lysates for phospho-MLC; assay type: cell-based, human; conditions: 5 min
# Method: (§1) After treatment as outlined for individual experiments, confluent HPAEC were lysed for Western blotting with phospho-MLC, pan-MLC, phospho-ERK, or pan-ERK antibodies. […] Membranes were then immunoblotted with primary antibodies (1:500-1000, 4° C., overnight) followed by secondary antibodies conjugated to horseradish peroxidase (1:5000, room temperature, 30 min) and detected with enhanced chemiluminescence (Pierce ECL or SuperSignal West Dura; Pierce Biotechnology, Rockford, Ill.) on Biomax MR film (Carestream Health, Rochester, N.Y.).
# [2] = molecular target: T1, S1P receptor 1 (S1PR1) (Homo sapiens, UniProt P21453); experiment: S1PR1 protein expression in HPAEC by Western blot; assay type: cell-based; design: Cells were collected and S1PR1 expression level was detected by Western blot; endogenous in cells; host or cells: HPAEC (human pulmonary artery endothelial cells); conditions: 1 μM (SEW2871 10 μM), 4 h
# T1 sequence (P21453 whole entry): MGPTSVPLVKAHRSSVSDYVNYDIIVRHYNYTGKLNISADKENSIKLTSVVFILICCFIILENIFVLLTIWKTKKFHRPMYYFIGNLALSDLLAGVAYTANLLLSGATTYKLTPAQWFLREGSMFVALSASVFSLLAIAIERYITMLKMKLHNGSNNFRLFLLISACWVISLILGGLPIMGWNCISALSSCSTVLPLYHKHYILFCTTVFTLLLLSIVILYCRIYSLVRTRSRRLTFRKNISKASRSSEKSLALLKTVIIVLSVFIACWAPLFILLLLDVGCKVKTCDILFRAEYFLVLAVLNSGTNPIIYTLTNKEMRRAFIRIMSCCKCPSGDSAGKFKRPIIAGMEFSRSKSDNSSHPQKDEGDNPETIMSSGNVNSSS
# Excerpt: Cells were collected and S1PR1 expression level was detected by Western blot.
# [3] = test system: LPS-induced lung injury in C57BL/6 mice; experiment: LPS-induced murine lung injury model; conditions: 1S 0.1-5.0 mg/kg i.p. single dose 1 h after LPS 2.5 mg/kg i.t.; 18 h; FTY720 0.5 mg/kg, S1P 0.026 mg/kg
# Method: For experiments performed in intact animals, male C57BL/6 mice (8-10 weeks) were anesthetized with intraperitoneal ketamine and acetylpromazine mixture according to the approved protocol. Escherichia coli LPS solution (2.5 mg/kg) or sterile saline was instilled intratracheally via a 20-gauge catheter. Simultaneously, mice received either FTY720 or analogs (in doses: 0.01, 0.1, 0.5, 1, and 5 mg/kg i.p.) or PBS as vehicle. The animals were allowed to recover for 18 h. BAL and lungs were collected and stored at −70° C. for evaluation of lung injury.
# Pure BAL fluids prepared for protein measurement or myeloperoxidase activity (MPO) lung homogenates were used to test albumin concentration. The assay was performed in 96-well plastic plates (Nalge Nunc A/S, Roskilde, Denmark). Plates were coated with mouse albumin (Bethyl Lab, Montgomery, Tex.), washed, and blocked. Aliquots (100-μl) of the sample or standard and 100 μl of goat anti-mouse albumin antibody (horseradish peroxidase-conjugated) (1:50,000) were then added, followed by incubation at 37° C. for 1 h. Finally, the substrate 3,3′,5,5′-tetramethylbenzidine was added for 10 min, and the reaction stopped by adding 100 μl of 2 M H2SO4. The absorbance at 450 nm was read on a kinetic microplate reader (Molecular Devices).
# Myeloperoxidase (MPO) was isolated and measured from snap-frozen right lungs as follows (see also Remick et al., 1990, Am J Pathol 136: 49-60). The right lung was homogenized in 1 ml of 50 mM potassium phosphate, pH 6.0, with 0.5% hexadecyltrimethylammonium bromide. The resulting homogenate was sonicated and then centrifuged at 12,000 g for 15 min. The supernatant was mixed 1:30 with assay buffer (100 mM potassium phosphate, pH 6.0, 0.005% H2O2, 0.168 mg/ml o-dianisidine hydrochloride), and absorbance read at 490 nm. MPO units were calculated as the change in absorbance with respect to time.
# Peripheral blood was examined by the Missouri University Research Animal Diagnostic Laboratory (Columbia, Mo.) for determination of total blood cell counts and differentials in blood samples.
# Values are shown as the mean±S.E. Data were analyzed using a standard Student's t test or one-way analysis of variance, groups were compared by Newman-Keuls test, and significance in all cases was defined at p<0.05.
# [4] = test system: β-arrestin; conditions: 1 μM (SEW2871 10 μM; (S)-FTY720-phosphonate 1, 10, 50 μM), 5 h
# Method: After another 2 h-incubation with fluorescence substrate, the fluorescence intensity (blue and green channels) were detected and the blue/green emission ratio was used as the activation indicator.
# [5] = test system: HPAEC; conditions: Camp et al., 2009; cited from earlier work
# [6] = test system: HPAEC; experiment: Transendothelial electrical resistance (TER) of HPAEC; assay type: cell-based, human; conditions: 10 μM, within 60 min
# Method: Cells were grown at 37° C. in a 5% CO2 incubator, and passages 6 to 9 were used for experiments. Media were changed 1 day before experimentation.
# [7] = molecular target: T1, S1P receptor 1 (S1PR1); experiment: Ubiquitination of S1PR1 in HPAEC (immunoprecipitation, ubiquitin Ab); conditions: 1 μM, 1 h
# Excerpt: S1PR1 was immunoprecipitated by S1PR1Ab, and ubiquitination of S1PR1 was detected by ubiquitin Ab.
# [8] = test system: HPAEC; experiment: Intracellular calcium by Fura-2; assay type: cell-based, human; conditions: 1 μM
# Method: To further explore the mechanistic differences in barrier regulation, intracellular calcium responses to the FTY720 analogs, S1P, and FTY720 were examined using Fura-2 (Harbeck et al., 2006, Sci STKE 2006: p16). HPAEC plated on 25-mm glass coverslips were loaded with 1 μM Fura-2/acetoxymethyl ester (Invitrogen, Carlsbad, Calif.) for 20 min at 37° C. in KRBH5 buffer (Krebs-Ringer-bicarbonate solution containing 119 mM NaCl, 4.7 mM KCl, 2.5 mM CaCl2, 1 mM MgCl2, 1 mM KH2PO4, 25 mM NaHCO3, mM HEPES-NaOH (pH 7.4), and 5 mM glucose). After replacement of the Fura-2 loading buffer with fresh KRBH5, coverslips were placed into the specimen stage of an inverted fluorescence microscope (Nikon TE-2000U). A Nikon Super Fluor 10× objective was used for these studies. Filters (340- and 380-nm excitation and 530-nm emission) were used for Fura-2 dual excitation ratio imaging. […] Fura-2 ratios were converted to [Ca^2+] using the equation: [Ca^2+]=(Kd′[(R−Rmin)/(Rmax−R)]×Sf/Sb) (Grynkiewicz et al., 1985, J Biol Chem 260: 3440-3450), where Kd′ is the dissociation constant for Fura-2 in the cytosol (225 nM) and Sf and Sb are the measured emission intensities at 380 nm for Ca^2+-free and Ca^2+-bound Fura-2, respectively. Data summaries for all Ca^2+ measurements are expressed as the means±S.E.
# [9] = test system: ERK; experiment: Western blotting of HPAEC lysates for phospho-ERK; assay type: cell-based, human; conditions: 5 min
# Method: as §1
# [10] = test system: HPAEC; experiment: Transwell transendothelial permeability assay (FITC-dextran); assay type: cell-based, human; conditions: 1 μM (3R, 3S 25 μM), 1 h before FITC-dextran, 2-h incubation
# Method: As a complementary approach to further characterize the barrier-protective effects of these FTY720 analogs in vitro, the permeability of FITC-labeled dextran across the pulmonary EC monolayer was assayed in response to treatment by the FTY720 analogs. […] Data were normalized to unstimulated control. n=3 independent experiments per condition; *, p<0.01 versus unstimulated condition (see FIG. 26).
# [11] = test system: HPAEC; experiment: Pharmacologic inhibitor effects on barrier enhancement (TER); conditions: 1 μM agonist, 60 min
# Method: Endothelial cells were grown to confluence in polycarbonate wells containing evaporated gold microelectrodes (surface area, 10^−3 cm^2) in series with a large gold counter electrode (1 cm^2) connected to a phase-sensitive lock-in amplifier. Current was applied across the electrodes by a 4,000-Hz AC voltage source with amplitude of 1 V in series with a 1 MΩ resistance to approximate a constant current source (˜1 μA). The in-phase and out-of-phase voltages between the electrodes were monitored in real time with the lock-in amplifier and subsequently converted to scalar measurements of transendothelial impedance, of which resistance was the primary focus. TER was monitored for 30 minutes to establish a baseline resistance (R0) which, for bovine pulmonary endothelium, was typically between 8 to 12×10^3Ω (wells with R0<7×10^3Ω were rejected). As cells adhere and spread out on the microelectrode, TER increases (maximal at confluence), whereas cell retraction, rounding, or loss of adhesion is reflected by a decrease in TER. These measurements provide a highly sensitive biophysical assay that indicates the state of cell shape and focal adhesion. Values from each microelectrode were pooled at discrete time points and plotted versus time as the mean±SE of the mean. TER values from each microelectrode were pooled as discrete time points and plotted versus time as the mean±S.E.M.
# In this experiment, confluent HPAEC were plated on gold microelectrodes and then stimulated with 1 μM S1P, FTY720, 1R, 1S, 2R, or 2S after either a 2-h preincubation with 100 ng/ml PTX, 30-min preincubation with 200 μM genistein (Gen), or 2-h preincubation with 2 mM MβCD or their respective vehicle controls. Data were pooled from multiple TER experiments (4-10 independent experiments per condition) and expressed as percentage inhibition of maximal barrier enhancement at 60 min relative to agonist-only control.
smiles,measurement,setting,value
"CCCCCCCCCCCCC/C=C/[C@@H](O)[C@@H](N)COP(=O)(O)O [S1P, sphingosine 1 phosphate]",MLC phosphorylation,[1],increased MLC and ERK phosphorylation
same,S1PR1 expression level compared to control,[2],38.1%
same,"capillary leak as total BAL protein, relative to PBS control",[3],reduction in permeability by 1S was comparable to that achieved by S1P or FTY720
same,activation of β-arrestin (blue/green emission ratio),[4],strongly activated
same,doses that can disrupt EC monolayer integrity,[5],> 10 µM
same,maximal TER change,[6],somewhat barrier-disruptive
same,ubiquitination of S1PR1 at 1 h,[7],significant ubiquitination
same,intracellular calcium [Ca2+]i,[8],produced a transient Ca^2+ spike
same,ERK phosphorylation,[9],increased MLC and ERK phosphorylation
same,EC permeability to FITC-dextran vs control EC,[10],significantly decreased permeability
same,"% Inhibition of Maximal TER Response (of Agonist-Only Control), PTX",[11]; 2-h preincubation 100 ng/ml PTX,98.35 (±0.25) %
same,"% Inhibition of Maximal TER Response (of Agonist-Only Control), MβCD",[11]; 2-h preincubation 2 mM MβCD,81.5 (±8.0) %
same,"% Inhibition of Maximal TER Response (of Agonist-Only Control), Gen",[11]; 30-min preincubation 200 μM genistein,42.4 (±13.9) %

# — US20130079309A1, “Method Of Treating Acute Lung Injury Using Sphingosine 1 Phosphate Analogs Or Sphingosine 1 Phosphate Receptor Agonists” (The Board of Trustees of the University of Illinois, priority 2010, published 2013)
